Experimental findings from patent US9926529B2, “Derivation of neural stem cells and dopaminergic neurons from human pluripotent stem cells” (International Stem Cell Corporation, priority 2012, dated 2018) are described below.

The test deals with hPSC-NSCs. Nature of the test: RT-PCR expression of dopamine neuron genes in hPSC-NSCs treated with small molecule hits. Conditions: for fold induction at 2.5 µM: Homo sapiens, Neuron, 336 h. Format: cell-based, human. The method, then: The method specifically involved treating both hESC-H9-NSCs (Invitrogen) and hPSC-NSCs with Purmorphamine (2 μM) and FGF8 (100 ng/mL) in NB medium [NeuroBasal medium, 1× GlutaMAX, 1× N2/B27 Supplement (Invitrogen)] for 7 days. After 7 days of Purmorphamine and FGF8 treatment, the NSCs were dissociated with Accutase (Sigma) and plated 20,000 cells/mL into Matrigel coated 96 well plates and treated with small molecule library (Torcris 1120 Biologically Active Compounds) at 2.5 μM final concentration for two weeks (FIG. 6A). Two weeks after treatment with small molecules, all wells were visually observed and scored based on neurite density and dopamine release. For measuring neurite density, cells were fixed with 4% paraformaldehyde and phase contrast images were acquired using Cellavista Cell Imaging System (Roche Applied Science) from randomly selected fields. Neurite density was measured using the Cellavista density software image processing program. Each experimental condition was done in duplicate wells, and at least three independent experiments were conducted to acquire the final results.
Conditioned medium from the top neurite inducers (Table 1) (wells containing the highest density of neurites compare to control 0.1% DMSO treated) were collected and analyzed using a dopamine ELISA assay (Cosmo Bio). Conditioned medium was collected from samples containing 50,000 cells per well and centrifuged at 3000 RPM to remove cell debris. Supernatant was then collected and analyzed for quantitative determination of dopamine using a commercial dopamine ELISA assay kit (CusaCosmo Bio). Data analysis was performed using the microtiter plate reader (BIO-TEK Synergy 2). The results presented are from three independent experiments (n=3) and represented as mean±standard error of mean (s.e.m.) and statistical analysis was performed using the two-tailed Student's t-test with a confidence level of 95% (α=0.05) with statistical significance of P<0.05. Additionally, total RNA from each well were collected and analyze by RT-PCR for expression of TuJ1, MAP2, TH, GRK2, EN1, DAT, AADC, PAX2, NURR1, PITX3 and LMX1B from hPSC-NSCs (Table 2). […] Analysis of the ELISA data indicated the top small molecule neurite inducers produced higher levels of dopamine than control non-treated cells (1.5 ng/mL). […] The percentages of TH positive cells produced by chemical treatment with Kenpaullone (33%), Guggulsterone (35%), Kynurenic Acid (19%), Immedthridine Dihydrobromide (21%), and Dimaprit Dihydrochloride (18%) were higher than 15% of TH positive cells obtained from hPSC-NSCs differentiated for ≥1 month using a standard dopaminergic differentiation medium (BDNF 20 ng/mL, GDNF 20 ng/mL, cAMP 200 μM, Abscorbic Acid 200 μM, TGFβ3 2 ng/mL and DAPT).
Total RNA from at least triplicate samples with around 1 million cells each was isolated using either QIAsymphony automatic purification system or RNeasy Plus Mini kit, according to manufacturer's instructions (Qiagen). Total RNA was used for reverse transcription with the iScript cDNA synthesis kit (Biorad) and Px2 Thermal Cycler (Thermo Scientific). To analyze gene expression, PCR reactions were performed in duplicate using 1/25-th of the cDNA per reaction and the QuantiTect Primer Assay and Quantitest SYBR Green master mix (Qiagen). qPCR was performed using the Rotor-Gene Q (Qiagen) 5 min at 95° C., 5 s at 92° C., and 20 s at 60° C. for 37 cycles followed by melt to check the specificity of the amplicons from 50 to 99° C. raising by 1° C. each step. Relative quantification was performed against a standard curve and quantified values were normalized against the input determined by PPIG. The primers used for the analysis are listed in Supplementary Table S1. […]

The mark [1] stands for this setting: hPSC-NSCs primed 7 days with Purmorphamine and FGF8, small molecule 2.5 μM for two weeks.
Setting [2] is: hPSC-NSCs primed 7 days with Purmorphamine and FGF8, small molecule 2.5 μM for two weeks, read-out: DDC (AADC) expression by RT-PCR.
Where [3] appears, read: hPSC-NSCs primed 7 days with Purmorphamine and FGF8, small molecule 2.5 μM for two weeks, read-out: EN1 expression by RT-PCR.
[4] abbreviates: hPSC-NSCs primed 7 days with Purmorphamine and FGF8, small molecule 2.5 μM for two weeks, read-out: KCNJ6 expression by RT-PCR.
Setting [5] is: hPSC-NSCs primed 7 days with Purmorphamine and FGF8, small molecule 2.5 μM for two weeks, read-out: LMX1B expression by RT-PCR.
[6] abbreviates: hPSC-NSCs primed 7 days with Purmorphamine and FGF8, small molecule 2.5 μM for two weeks, read-out: MAP2 expression by RT-PCR.
Setting [7] is: hPSC-NSCs primed 7 days with Purmorphamine and FGF8, small molecule 2.5 μM for two weeks, read-out: NR4A2 (NURR1) expression by RT-PCR.
Setting [8] is: hPSC-NSCs primed 7 days with Purmorphamine and FGF8, small molecule 2.5 μM for two weeks, read-out: PITX3 expression by RT-PCR.
Setting [9] is: hPSC-NSCs primed 7 days with Purmorphamine and FGF8, small molecule 2.5 μM for two weeks, read-out: Pax2 expression by RT-PCR.
Where [10] appears, read: hPSC-NSCs primed 7 days with Purmorphamine and FGF8, small molecule 2.5 μM for two weeks, read-out: TH1 expression by RT-PCR.
Where [11] appears, read: hPSC-NSCs primed 7 days with Purmorphamine and FGF8, small molecule 2.5 μM for two weeks, read-out: Tubb3 expression by RT-PCR.

Structures can show the parent of a compound that is named as a salt. Where two headings read alike, the source gives them in different places.

Consider `Cc1cc(C(=O)O)sc1C(N)C(=O)O` (stereo not shown) [3-MATIDA], for which, under setting [1], the “DDC (AADC) expression by RT-PCR” value was determined as 80.55, the “EN1 expression by RT-PCR” value is listed as 7.3, the “KCNJ6 (GRK2) expression by RT-PCR” value was found to be 1.21 and the “LMX1B expression by RT-PCR” value turned out to be 2.99. Under setting [1], the “MAP2 expression by RT-PCR” value was 10.7, the “NR4A2 (NURR1) expression by RT-PCR” value is 3.06, the “PITX3 expression by RT-PCR” value is on record as 0.46 and the “Pax2 expression by RT-PCR” value is recorded as 0.65. Also, under setting [1], the “SLC6A3 (DAT) expression by RT-PCR” value is 1.42, the “TH1 expression by RT-PCR” value is on record as 5.1 and the “Tubb3 expression by RT-PCR” value worked out at 3.74.

Take `Br.CCCN(CCC)C1CCc2cccc(O)c2C1` (stereo not shown) [8-Hydroxy-DPAT hydrobromide]: under setting [1], the “DDC (AADC) expression by RT-PCR” value worked out at 124.29, the “EN1 expression by RT-PCR” value came to 11.69, the “KCNJ6 (GRK2) expression by RT-PCR” value stood at 0.9 and the “LMX1B expression by RT-PCR” value is recorded as 5.42. Also, under setting [1], the “MAP2 expression by RT-PCR” value came to 14.43, the “NR4A2 (NURR1) expression by RT-PCR” value was 7.66, the “Pax2 expression by RT-PCR” value was 1.25 and the “SLC6A3 (DAT) expression by RT-PCR” value turned out to be 19.9. Under setting [1], the “TH1 expression by RT-PCR” value came to 7.32 and the “Tubb3 expression by RT-PCR” value amounted to 7.8.

As for `N[C@@H]1CCN(O)C1=O` [(R)-(+)-HA-966], under setting [1], the “DDC (AADC) expression by RT-PCR” value came to 104.03, the “EN1 expression by RT-PCR” value is on record as 7.26, the “KCNJ6 (GRK2) expression by RT-PCR” value was found to be 1.02 and the “LMX1B expression by RT-PCR” value amounted to 3.94. Under setting [1], the “MAP2 expression by RT-PCR” value is 10.66, the “NR4A2 (NURR1) expression by RT-PCR” value turned out to be 3.91, the “PITX3 expression by RT-PCR” value is on record as 0.23 and the “Pax2 expression by RT-PCR” value was found to be 4.7. For the same compound, under setting [1], the “SLC6A3 (DAT) expression by RT-PCR” value came to 26.39, the “TH1 expression by RT-PCR” value worked out at 6.75 and the “Tubb3 expression by RT-PCR” value amounted to 5.61.

For the compound `Cc1nnc2ccc(-c3cccc(C(F)(F)F)c3)nn12` [CL 218872], under setting [1], the “DDC (AADC) expression by RT-PCR” value is reported as 8.73, the “EN1 expression by RT-PCR” value was found to be 5.69, the “KCNJ6 (GRK2) expression by RT-PCR” value is 0.43 and the “LMX1B expression by RT-PCR” value was found to be 2.52. In addition, under setting [1], the “MAP2 expression by RT-PCR” value turned out to be 8.94, the “NR4A2 (NURR1) expression by RT-PCR” value was found to be 1.79, the “PITX3 expression by RT-PCR” value worked out at 0.08 and the “Pax2 expression by RT-PCR” value came out at 0.09. Also, under setting [1], the “SLC6A3 (DAT) expression by RT-PCR” value is 0.98, the “TH1 expression by RT-PCR” value worked out at 13.89 and the “Tubb3 expression by RT-PCR” value is on record as 4.3.

Consider `Nc1nc(Nc2ccccc2)nc2c1ncn2[C@@H]1O[C@H](CO)[C@@H](O)[C@H]1O` [CV 1808], for which, under setting [1], the “DDC (AADC) expression by RT-PCR” value is on record as 16.69, the “EN1 expression by RT-PCR” value is 5.56, the “KCNJ6 (GRK2) expression by RT-PCR” value came out at 0.36 and the “MAP2 expression by RT-PCR” value was 8.66. Besides, under setting [1], the “NR4A2 (NURR1) expression by RT-PCR” value is reported as 1.56, the “PITX3 expression by RT-PCR” value stood at 0.7, the “SLC6A3 (DAT) expression by RT-PCR” value amounted to 0.94 and the “TH1 expression by RT-PCR” value turned out to be 12.51. Moreover, the “Tubb3 expression by RT-PCR” value under setting [1] was determined as 3.86.

As for `CCCC[C@@H](C=O)NC(=O)[C@H](CC(C)C)NC(=O)OCc1ccccc1` [Calpeptin], the fold induction at 2.5 µM by setting is: (read-out: SLC6A3 (DAT) expression by RT-PCR) 6.57; under setting [2], 295; under setting [3], 6.93; under setting [4], 4.43; under setting [5], 2.9; under setting [6], 12.9. Also, the fold induction at 2.5 µM was determined as 2.45 under setting [7]; 0.37 under setting [8]; 3.54 under setting [9]; 15.2 under setting [10]; 6.1 under setting [11].

As to `CC(C)(C)c1cc(C(=O)/C=C/c2ccc(C(=O)O)cc2)cc(C(C)(C)C)c1` [Ch 55], under setting [1], the “DDC (AADC) expression by RT-PCR” value is listed as 22.86, the “EN1 expression by RT-PCR” value is reported as 11.61, the “KCNJ6 (GRK2) expression by RT-PCR” value amounted to 0.25 and the “LMX1B expression by RT-PCR” value amounted to 1.54. For the same compound, under setting [1], the “MAP2 expression by RT-PCR” value is reported as 5.25, the “NR4A2 (NURR1) expression by RT-PCR” value amounted to 77.93, the “PITX3 expression by RT-PCR” value is 0.13 and the “Pax2 expression by RT-PCR” value was found to be 0.06. In addition, under setting [1], the “SLC6A3 (DAT) expression by RT-PCR” value turned out to be 0.11, the “TH1 expression by RT-PCR” value is recorded as 1.19 and the “Tubb3 expression by RT-PCR” value stood at 3.48.

Turning to `O=S(=O)(c1cccc2cnccc12)N1CCCNCC1` [Fasudil hydrochloride], the fold induction at 2.5 µM came out at 32.4 under setting [2]; 8.69 under setting [3]; 1.57 under setting [4]; 3.5 under setting [5]; 11.6 under setting [6]; 4.53 under setting [7]. Moreover, the fold induction at 2.5 µM is, setting by setting: under setting [8], 0.27; under setting [9], 0.27; (hPSC-NSCs primed 7 days with Purmorphamine and FGF8, small molecule 2.5 μM for two weeks, read-out: SLC6A3 (DAT) expression by RT-PCR) 2.79; under setting [10], 5.53; under setting [11], 5.67.

As to `O=C(O)Cc1cccnc1C(=O)O` [Homoquinolinic acid], under setting [1], the “DDC (AADC) expression by RT-PCR” value turned out to be 20.19, the “EN1 expression by RT-PCR” value came to 4.83, the “KCNJ6 (GRK2) expression by RT-PCR” value is 1.76 and the “LMX1B expression by RT-PCR” value is reported as 2.32. Besides, under setting [1], the “MAP2 expression by RT-PCR” value is listed as 10.03, the “NR4A2 (NURR1) expression by RT-PCR” value amounted to 1.99, the “PITX3 expression by RT-PCR” value turned out to be 0.4 and the “Pax2 expression by RT-PCR” value was 0.05. Also, under setting [1], the “SLC6A3 (DAT) expression by RT-PCR” value is 19.18, the “TH1 expression by RT-PCR” value is 10.77 and the “Tubb3 expression by RT-PCR” value was determined as 2.95.

`Cl.O=C(O)COc1ccc(OCCNC[C@H](O)COc2ccccc2)cc1` [ICI 215,001 hydrochloride]: under setting [1], the “DDC (AADC) expression by RT-PCR” value is 29.34, the “EN1 expression by RT-PCR” value is recorded as 8.52, the “KCNJ6 (GRK2) expression by RT-PCR” value is 1.48 and the “LMX1B expression by RT-PCR” value came to 4.79. Moreover, under setting [1], the “MAP2 expression by RT-PCR” value amounted to 11.2, the “NR4A2 (NURR1) expression by RT-PCR” value is 2.88, the “Pax2 expression by RT-PCR” value amounted to 39.43 and the “SLC6A3 (DAT) expression by RT-PCR” value amounted to 1.77. Further, under setting [1], the “TH1 expression by RT-PCR” value was determined as 6.04 and the “Tubb3 expression by RT-PCR” value was found to be 5.54.
